Test results as given in paper PMC9599704, “Liposomal Entrapment or Chemical Modification of Relaxin2 for Prolongation of Its Stability and Biological Activity” (Biomolecules, 2022).

Experiment: in vitro
Description: Samples were placed separately in hermetically sealed screw-tubes (to avoid evaporation) and then in an orbital incubator (Stuart S1500, UK) set at 50 rpm and 37 °C, for a period of up to 30 d. […] For quantification of free or liposomal peptides in the presence of 80% FBS, serum proteins precipitation was accomplished by mixing one volume of sample (100 μL) with three volumes (300 μL) of acidified isopropanol (with 0.1% TFA), followed by vortex agitation and centrifugation at 15000 rpm for 15 min. Next, the supernatant was transferred to a new eppendorf tube and 400 μL of HEPES (pH 5.0) were added, followed by vigorous vortex for 1 min, in order to retrieve the peptide. Finally, the samples were analyzed by HPLC, based on a calibration curve constructed at the exact same conditions as the samples to be analyzed.
For direct comparison of the stability of the different peptides, the results were normalized and expressed as the percentage of the corresponding initial peptide concentration measured at time point 0, for each peptide and each formulation (solution or liposome). Experiments were carried out in triplicate, and the results are expressed as the mean value ± standard deviation.

CC[C@H](C)[C@@H]1NC(=O)[C@H](C)NC(=O)[C@H]([C@@H](C)CC)NC(=O)[C@H](CCC(N)=O)NC(=O)[C@H](C)NC(=O)[C@H](CCCNC(=N)N)NC(=O)[C@H](C(C)C)NC(=O)[C@H](CC(C)C)NC(=O)[C@H](CCC(=O)O)NC(=O)[C@H](CCCNC(=N)N)NC(=O)CNC(=O)[C@@H](NC(=O)[C@H](CC(C)C)NC(=O)[C@H](CCCCN)NC(=O)[C@@H](NC(=O)[C@@H](NC(=O)[C@H](CCC(=O)O)NC(=O)[C@H](CCC(=O)O)NC(=O)[C@H](CCSC)NC(=O)[C@H](Cc2c[nH]c3ccccc23)NC(=O)[C@H](CO)NC(=O)[C@@H](N)CC(=O)O)C(C)C)[C@@H](C)CC)CSSC[C@@H]2NC(=O)[C@@H](NC(=O)[C@H](CCCCN)NC(=O)[C@H](CC(N)=O)NC(=O)[C@H](C)NC(=O)[C@H](CC(C)C)NC(=O)[C@H](C)NC(=O)[C@H](CO)NC(=O)[C@H](Cc3ccc(O)cc3)NC(=O)[C@H](CC(C)C)NC(=O)[C@@H]3CCC(=O)N3)CSSC[C@H](NC(=O)CNC(=O)[C@H](C(C)C)NC(=O)[C@H](Cc3c[nH]cn3)NC2=O)C(=O)N[C@@H]([C@@H](C)O)C(=O)N[C@@H](CCCCN)C(=O)N[C@@H](CCCNC(=N)N)C(=O)N[C@@H](CO)C(=O)N[C@@H](CC(C)C)C(=O)N[C@@H](C)C(=O)N[C@@H](CCCNC(=N)N)C(=O)N[C@@H](Cc2ccccc2)C(=O)N[C@H](C(=O)O)CSSC[C@@H](C(=O)NCC(=O)N[C@@H](CC[S+](C)[O-])C(=O)N[C@@H](CO)C(=O)N[C@H](C(=O)N[C@@H](Cc2c[nH]c3ccccc23)C(=O)N[C@@H](CO)C(=O)O)[C@@H](C)O)NC1=O (some centres unmarked) [O-RLX2, Met (O)^25-human relaxin 2]
peptide remaining after 10 d of incubation in FBS (FBS 80% v/v, 37 °C, 10 d, 58 ± 5.0 μg/mL peptide, HPLC, % of initial concentration, triplicate): all the free O-RLX2 peptide was degraded
half-life (fetal bovine serum (FBS) 80% v/v): 83.5 h
